Measured values from patent US20250313535A1, “ALPHA 4 BETA 7 INTEGRIN MODULATORS AND USES THEREOF” (DICE MOLECULES SV, INC., priority 2022, published 2025).

molecular target: α4β7 integrin (Homo sapiens (Human), UniProt P13612+P26010); test: Integrin Adhesion Assay: Protocol 4 (MAdCAM-coated plate, RPMI-8866 cells with stable LOF mutation of the ITGB1 gene); assay type: cell-based; details: Protocol 4; RPMI-8866 cells with LOF mutation of ITGB1, MAdCAM; read-out: Mean IC50 α4β7 KO
Method: (§1) Integrin Adhesion Assay Using Genetically Modified Cells Generating Stable Cell Lines with ITGB1 or ITGB7 Knockout (Protocol 4 and Protocol 5)
(§2) To obtain subclones of the RPMI-8866 cell line (Sigma-Aldrich, St. Louis, MO) that were individually deficient in either integrin β1 or integrin β 7, CRISPR/Cas9 technology was employed (PMID: 30108345). Specifically, a Neon™ Transfection System System 10 μL Kit and the Neon™ Transfection device (both from ThermoFisher Scientific) were used.
(§3) The protocol was performed following the manufacturer instructions, described in https://www.thermofisher.com/document-connect/document-connect.html?url=https % 3A%2F%2F assets.thermofisher.com%2FTFS-Assets%2FLSG%2Fmanuals%2FMAN0017066_TrueCut Cas9_Protein_v2_UG.pdf, which is incorporated by reference herein in its entirety.
(§4) RPMI-8866 cells were transferred to a flask the day before transfection, at a confluence of 5×10^5 cells/mL. The cells were washed with PBS and resuspended in buffer R (Neon™ Transfection System, Invitrogen) to 2×10^5 cells/10 uL for each reaction. The TrueCut™ HiFi Cas9 Protein (1250 ng per reaction) was mixed with TrueGuide™ sgRNA (7.5 pmoles each/pool of 3 sequences, table 1) (ThermoFisher Scientific). This mix was combined with the RPMI-8866 cells and electroporated on the Neon system at 1700V/20 ms/1 pulse. Transfected cells were allowed to recover in 500 μL pre-warmed cRMPI media (RPMI-1640 media with 10% FBS, 100 U/ml Penicillin-Streptomycin) at 37° C., 5% CO2 for 24 hours. At that time, an extra 500 μL of pre-warmed cRMPI media was added, and cells were incubated for another 24 hours.
(§5) For flow cytometry analysis, 100 μL of the transfected cells were collected and stained with anti-itga4 (Clone: 9F10, PE, BD Pharmingen™), anti-itgb 1 (Clone: (TS2/16), Super Bright 436, eBioscience), anti-itgb7 (Clone: FIB504, Brilliant Violet 650, BD Pharmingen™) and viability dye (LIVE/DEAD™ Fixable Green Dead Cell Stain, Invitrogen™). An Attune NxT Flow Cytometer was used to analyze the CRISPR-transfected cells. The flow cytometry results were analyzed using FlowJo™ v10.8.1 Software (BD Life Sciences). Fluorescence minus one (FMO) controls were used to select appropriate gates for data analysis.
(§6) To generate an individual clones of cells deficient in either ITGB7 or ITGB1 by limiting dilution assay, the transfected cells were resuspended at 5 cells/mL and seeded in 384 well plates. Outgrowth of clones was monitored using a microscope, and 24 clones were transferred for expansion. Expression of either integrin was verified by flow cytometry in each of the clones. One clone of each integrin b7 or the integrin b1 knockout was chosen, expanded and aliquots were frozen in vapor phase liquid nitrogen.
Integrin Adhesion Assay: Protocol 4
(§7) MAdCAM (R&D Systems, 0.1 ug) was diluted in 50 μL PBS, added to each well of an opaque ELISA plate (Thermo), and incubated overnight at 4° C. Coated plates were washed once with PBS and then blocked with 200 μL of assay buffer (10 mM HEPES, 150 mM NaCl, 1 mM MnCl2, 0.1 mM CaCl2), 1% BSA) for 1 hour at 37° C. and 5% CO2. After incubation, buffer was aspirated from the plates and 50 μL of fresh assay buffer was added. Compounds were added using a compounds dispenser (Tecan), and DMSO concentration was normalized to 1% across each plate. 50 μL of RPMI-8866 cells with a stable loss of function (LOF) mutation of the ITGB1 gene (2×10^6 per mL) were added to each well and the plates were incubated for 1 hour at 37° C. at a CO2 concentration of 5%. After incubation, plates were allowed to cool to RT for 10 minutes before being washed four times in assay buffer by an automated plate washer (BioTek). After washing, 100 μL of a 1:1 mixture of assay buffer and CellTiter GLO 2.0 reagent (Promega) were added to each well. Plates were mixed for 2 minutes at 1000 rpm and then allowed to incubate an additional 10 minutes before reading out luminescence on a Tecan Spark plate reader. […]

Sequence of α4β7 integrin (P13612 34-1032): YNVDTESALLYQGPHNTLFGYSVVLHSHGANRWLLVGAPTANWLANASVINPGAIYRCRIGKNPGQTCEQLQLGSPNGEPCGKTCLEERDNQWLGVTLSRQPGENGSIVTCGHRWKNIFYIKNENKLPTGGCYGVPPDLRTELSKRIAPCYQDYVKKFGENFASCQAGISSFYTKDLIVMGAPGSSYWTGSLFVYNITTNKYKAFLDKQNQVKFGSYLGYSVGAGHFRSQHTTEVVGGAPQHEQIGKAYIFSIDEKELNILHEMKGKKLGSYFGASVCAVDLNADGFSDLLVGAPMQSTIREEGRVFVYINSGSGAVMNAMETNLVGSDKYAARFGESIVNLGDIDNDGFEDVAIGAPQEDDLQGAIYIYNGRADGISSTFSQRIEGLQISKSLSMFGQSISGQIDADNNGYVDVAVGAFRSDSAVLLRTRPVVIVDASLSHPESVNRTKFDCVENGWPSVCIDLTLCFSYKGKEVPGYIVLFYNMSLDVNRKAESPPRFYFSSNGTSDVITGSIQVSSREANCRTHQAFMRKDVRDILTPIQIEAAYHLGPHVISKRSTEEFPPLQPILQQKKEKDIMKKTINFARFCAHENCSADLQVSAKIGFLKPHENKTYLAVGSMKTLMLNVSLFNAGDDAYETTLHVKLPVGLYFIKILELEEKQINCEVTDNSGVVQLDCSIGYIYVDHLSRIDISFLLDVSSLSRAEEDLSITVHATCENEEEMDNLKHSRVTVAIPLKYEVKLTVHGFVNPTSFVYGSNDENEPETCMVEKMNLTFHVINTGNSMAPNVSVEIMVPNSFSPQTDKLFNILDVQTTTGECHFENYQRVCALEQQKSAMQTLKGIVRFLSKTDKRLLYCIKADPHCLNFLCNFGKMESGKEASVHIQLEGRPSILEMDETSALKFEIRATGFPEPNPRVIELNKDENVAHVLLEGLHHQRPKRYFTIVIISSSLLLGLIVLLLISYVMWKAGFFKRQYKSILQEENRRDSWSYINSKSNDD
Sequence of α4β7 integrin (P26010 20-798): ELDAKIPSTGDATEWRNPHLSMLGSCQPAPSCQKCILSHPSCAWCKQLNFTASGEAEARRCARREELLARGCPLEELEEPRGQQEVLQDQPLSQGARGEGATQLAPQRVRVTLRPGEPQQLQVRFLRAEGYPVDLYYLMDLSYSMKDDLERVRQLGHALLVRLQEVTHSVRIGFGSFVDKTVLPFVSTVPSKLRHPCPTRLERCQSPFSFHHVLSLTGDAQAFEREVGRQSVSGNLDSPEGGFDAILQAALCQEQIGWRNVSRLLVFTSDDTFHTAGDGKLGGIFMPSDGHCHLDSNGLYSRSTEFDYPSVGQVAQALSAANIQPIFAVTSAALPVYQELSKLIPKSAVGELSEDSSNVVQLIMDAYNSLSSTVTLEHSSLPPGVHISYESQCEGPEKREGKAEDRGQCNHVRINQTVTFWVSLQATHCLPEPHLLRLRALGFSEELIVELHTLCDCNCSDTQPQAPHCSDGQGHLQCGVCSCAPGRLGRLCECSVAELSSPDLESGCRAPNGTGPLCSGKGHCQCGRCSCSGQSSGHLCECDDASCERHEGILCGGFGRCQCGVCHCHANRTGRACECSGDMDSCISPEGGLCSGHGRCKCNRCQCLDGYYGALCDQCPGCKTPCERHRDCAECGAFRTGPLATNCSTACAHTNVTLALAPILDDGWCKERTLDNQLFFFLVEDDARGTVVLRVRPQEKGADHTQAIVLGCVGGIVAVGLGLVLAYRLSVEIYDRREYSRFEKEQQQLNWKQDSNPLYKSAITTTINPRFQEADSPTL

IC50 [nM]	Structure (SMILES)
< 10	CN1CCc2nc(-c3cccc4c(C[C@H](NC(=O)C5(C(F)(F)F)CCN(CC(F)(F)F)CC5)C(=O)O)cccc34)ccc2C1 [Compound 755]
< 10	O=C(O)[C@H](Cc1cccc2c(-c3ncc(CN4CC(F)C4)c4ccccc34)cccc12)NC(=O)C1(C(F)(F)F)CCN(CC(F)F)CC1 [Compound 877]
< 10	COc1c(CN(C)C)ccc(C)c1-c1cccc2c(C[C@H](NC(=O)c3c(C)cccc3F)C(=O)O)cccc12 [Compound 1010]
< 10	O=C(O)[C@H](Cc1cccc2c(-c3ncc(CN4CCCCC4)cc3C(F)(F)F)cccc12)NC(=O)C1(C(F)(F)F)CCN(CC(F)F)CC1 [Compound 897]
< 10	C[C@@H]1CN(CCc2cnc(-c3cccc4c(C[C@H](NC(=O)C5(C(F)(F)F)CCN(CC(F)(F)F)CC5)C(=O)O)cccc34)c3ccccc23)C[C@H](C)O1 [Compound 979]
10 to 100	Cc1cccc(F)c1C(=O)N[C@@H](Cc1cccc2c(-c3cc(CN4CCCCC4)ccc3C(F)(F)F)cccc12)C(=O)O [Compound 689]
< 10	O=C(O)[C@H](Cc1cccc2c(-c3ncc(CN4CCC(F)(F)CC4)c4ccccc34)cccc12)NC(=O)C1(C(F)(F)F)CCN(CC(F)F)CC1 [Compound 906]
100 to 1000	Cn1c(=O)c(-c2cccc3c(C[C@H](NC(=O)C4(C)C[C@H]5CN(CC(F)(F)F)C[C@H]5C4)C(=O)O)cccc23)c(C(F)(F)F)c2ccccc21 (stereo partly shown) [Compound 1047]
< 10	O=C(O)[C@H](Cc1cccc2c(-c3nccc4ccc(CCCN5CC6(CCC6)C5)cc34)cccc12)NC(=O)C1(C(F)(F)F)CCN(CC(F)(F)F)CC1 [Compound 745]
< 10	Cc1cc(CN2CCN(C3CC3)CC2)cnc1-c1cccc2c(C[C@H](NC(=O)C3(C(F)(F)F)CCN(CC(F)F)CC3)C(=O)O)cccc12 [Compound 899]
10 to 100	Cc1c(CN2CCCCC2)ccnc1-c1cccc2c(C[C@H](NC(=O)C3(C(F)(F)F)CCN(CC(F)(F)F)CC3)C(=O)O)cccc12 [Compound 747]

same assay, conditions: RPMI-8866 cells with stable LOF mutation of the ITGB1 gene; read-out: Mean IC50 α4β7 KO^a

IC50 [nM]	Structure (SMILES)
> 1000	O=C(N[C@@H](Cc1cccc2c(-c3cccc4ccncc34)cccc12)C(=O)O)c1c(F)cccc1F [Compound 295]
10 to 100	COc1ccc(CN2CC3CCC(C2)O3)c(OC)c1-c1cccc2c(C[C@H](NC(=O)c3c(C)cccc3F)C(=O)O)cccc12 [Compound 568]
100 to 1000	Cn1c(=O)c(-c2cccc3c(C[C@H](NC(=O)c4c(F)ccc(C5CC5)c4F)C(=O)O)cccc23)c(C(F)(F)F)c2ccccc21 [Compound 488]
> 1000	Cn1c(=O)c(-c2cccc3c(C[C@H](NC(=O)C45CC(NCC(F)(F)F)(C4)C5)C(=O)O)cccc23)c(C(F)(F)F)c2ccccc21 [Compound 446]

molecular target: α4β1 integrin (Homo sapiens (Human), UniProt P05556+P13612); test: Integrin Adhesion Assay: Protocol 5 (VCAM-coated plate, RPMI-8866 cells with stable LOF mutation of the ITGB7 gene); assay type: cell-based; details: Protocol 5; RPMI-8866 cells with LOF mutation of ITGB7, VCAM; read-out: Mean IC50 α4β1 KO
Method: as §1, §2, §3, §4, §5, §6
Integrin Adhesion Assay: Protocol 5
as §7, with “VCAM” for “MAdCAM”, “by” for “using a”, “(Tecan)” for “(Tecan),”, “LOF” for “loss of function (LOF)”, “ITGB7” for “ITGB1”, “and 5% CO2.” for “at a CO2 concentration of 5%.”

Sequence of α4β1 integrin (P13612 34-1032): as the sequence (P13612 34-1032) above
Sequence of α4β1 integrin (P05556 21-798): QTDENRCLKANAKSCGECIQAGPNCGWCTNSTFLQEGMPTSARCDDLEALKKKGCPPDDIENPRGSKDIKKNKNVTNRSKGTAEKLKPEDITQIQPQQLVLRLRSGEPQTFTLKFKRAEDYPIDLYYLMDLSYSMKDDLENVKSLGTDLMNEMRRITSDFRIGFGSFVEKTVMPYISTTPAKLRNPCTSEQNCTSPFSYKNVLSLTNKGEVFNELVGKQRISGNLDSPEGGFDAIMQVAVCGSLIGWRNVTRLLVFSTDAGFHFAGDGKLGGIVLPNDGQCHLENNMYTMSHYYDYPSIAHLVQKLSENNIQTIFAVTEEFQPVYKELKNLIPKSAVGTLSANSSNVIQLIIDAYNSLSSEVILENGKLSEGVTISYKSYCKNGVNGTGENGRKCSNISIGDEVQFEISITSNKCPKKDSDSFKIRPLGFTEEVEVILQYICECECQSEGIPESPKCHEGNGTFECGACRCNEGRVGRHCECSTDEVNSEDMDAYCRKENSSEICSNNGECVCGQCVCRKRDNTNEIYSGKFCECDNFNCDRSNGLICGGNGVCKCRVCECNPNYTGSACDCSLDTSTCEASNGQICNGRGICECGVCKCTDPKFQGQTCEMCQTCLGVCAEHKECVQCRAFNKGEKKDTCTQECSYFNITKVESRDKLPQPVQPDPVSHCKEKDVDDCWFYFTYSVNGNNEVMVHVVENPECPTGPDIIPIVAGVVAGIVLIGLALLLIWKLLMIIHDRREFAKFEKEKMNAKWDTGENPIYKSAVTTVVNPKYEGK

IC50 [nM]	Structure (SMILES)
> 1000	CN(Cc1cnc(-c2cccc3c(C[C@H](NC(=O)C4(C(F)(F)F)CCN(CC(F)(F)F)CC4)C(=O)O)cccc23)c2ccccc12)CC(F)(F)F [Compound 895]
> 1000	COc1c(-c2cccc3c(C[C@H](NC(=O)C4(C(F)(F)F)CCN(CC(F)(F)F)CC4)C(=O)O)cccc23)ccc2ccccc12 [Compound 776]
> 1000	O=C(O)[C@H](Cc1cccc2c(-c3cccc4ncoc34)cccc12)NC(=O)C1(C(F)(F)F)CCN(CC(F)(F)F)CC1 [Compound 771]
> 1000	O=C(O)[C@H](Cc1cccc2c(-c3cccc4cnoc34)cccc12)NC(=O)C1(C(F)(F)F)CCN(CC(F)(F)F)CC1 [Compound 772]
100 to 1000	COc1ccc(CN2CCC(C(F)(F)F)CC2)cc1-c1cccc2c(C[C@H](NC(=O)C3(C(F)(F)F)CCN(CC(F)F)CC3)C(=O)O)cccc12 [Compound 939]
> 1000	COc1cc2ccccc2cc1-c1cccc2c(C[C@H](NC(=O)C3(C(F)(F)F)CCN(CC(F)(F)F)CC3)C(=O)O)cccc12 [Compound 775]
> 1000	Cc1cccc(F)c1C(=O)N[C@@H](Cc1cccc2c(-c3ccccc3OCCN3CCCCC3)cccc12)C(=O)O [Compound 1007]
100 to 1000	CC[C@@H]1CCCCN1Cc1cnc(-c2cccc3c(C[C@H](NC(=O)C4(C(F)(F)F)CCN(CC(F)F)CC4)C(=O)O)cccc23)c2ccccc12 [Compound 932]
> 1000	Cc1cccc(F)c1C(=O)N[C@@H](Cc1cccc2c(-c3ncc(CN4CCC(F)(F)CC4)c4ccccc34)cccc12)C(=O)O [Compound 1031]
> 1000	Cn1c(=O)c(-c2cccc3c(C[C@H](NC(=O)c4c(F)cccc4F)C(=O)O)cccc23)c(C(F)(F)F)c2cc(CCN3CC(F)C3)ccc21 [Compound 715]
> 1000	O=C(O)[C@H](Cc1cccc2c(-c3cccc4ocnc34)cccc12)NC(=O)C1(C(F)(F)F)CCN(CC(F)(F)F)CC1 [Compound 770]
> 1000	COc1cccc(CN2CCCCC2)c1-c1cccc2c(C[C@H](NC(=O)c3c(F)cccc3-c3ccccc3)C(=O)O)cccc12 [Compound 693]
100 to 1000	COc1ccc(CCN2CCCC(F)C2)c(OC)c1-c1cccc2c(C[C@H](NC(=O)C3(C(F)(F)F)CCN(CC(F)(F)F)CC3)C(=O)O)cccc12 (stereo partly shown) [Compound 826]
> 1000	O=C(O)[C@H](Cc1cccc2c(-c3c(CN4CCCCC4)ccc4cccnc34)cccc12)NC(=O)C1(C(F)(F)F)CCN(CC(F)(F)F)CC1 [Compound 767]
> 1000	COc1c(-c2cccc3c(C[C@H](NC(=O)C4(C(F)(F)F)CCN(CC(F)(F)F)CC4)C(=O)O)cccc23)cc(CN2CCCCC2)cc1C(F)(F)F [Compound 769]
> 1000	Cc1cccc(F)c1C(=O)N[C@@H](Cc1cccc2c(-c3c(C(F)(F)F)c4cc(CN5CCC(F)(F)CC5)ccc4n(C)c3=O)cccc12)C(=O)O [Compound 1032]
> 1000	CN(Cc1cnc(-c2cccc3c(C[C@H](NC(=O)C4(C(F)(F)F)CCN(CC(F)F)CC4)C(=O)O)cccc23)c2ccccc12)CC(F)(F)F [Compound 923]

same assay, conditions: RPMI-8866 cells with stable LOF mutation of the ITGB7 gene; read-out: Mean IC50 α4β1 KO^b

IC50 [nM]	Structure (SMILES)
> 1000	CN(C)Cc1cccc2c(-c3cccc4c(C[C@H](NC(=O)c5c(F)cc(N6CCOC[C@@H]6C(F)(F)F)cc5CN5CCC(N(C)C)CC5)C(=O)O)cccc34)nccc12 [Compound 434]
100 to 1000	Cn1c(=O)c(-c2cccc3c(C[C@H](NC(=O)C4(C(F)(F)F)CCN([C@H]5CCOC5)CC4)C(=O)O)cccc23)c(C(F)(F)F)c2ccccc21 [Compound 458]
